Values quoted from earlier work in patent US20210322405A1, “COMPOSITIONS AND METHODS FOR TREATING CANCER” (Washington University, priority 2020, published 2021).

What was measured:
[1] = tested on: GBM patients; conditions: clinical trial; Butowski et al., 2016
[2] = tested on: G6PD; conditions: dose-dependent manner; Bernstock et al., 2017
[3] = tested on: ALK-inhibitor resistant ALK-driven patient-derived cell lines; conditions: SHP099 in combination with the ALK inhibitor ceritinib; Dardaei et al., 2018

## FC(F)(F)c1ccc(CNc2ccc(Cc3c[nH]c4ncc(Cl)cc34)cn2)cn1 [PLX3397]
[1]
  clinical benefit for GBM patients: did not show clear benefit

## CC[C@@]1(O)C(=O)OCc2c1cc1n(c2=O)Cc2cc3c(CN(C)C)c(O)ccc3nc2-1 [topotecan]
[2]
  activity of G6PD: decreases

## CC1(N)CCN(c2cnc(-c3cccc(Cl)c3Cl)c(N)n2)CC1 [SHP099]
[3]
  Shp2-activation-mediated resistance to ALK inhibitor: overcome
